Reference: the supplement of paper PMC9013687
± gives the standard deviation of the averaged measurements.

How the values were obtained:
Danio rerio embryo [1] = experiment: EC50 Yolk sac size_Increase; conditions: exposure time: 4 dpf
Experimental: (§1)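 Zebrafish embryos (UFZ-OBI strain) were exposed from 2 hpf for 48 h (2 dpf) or 96 h (4 dpf) at 28 °C; spontaneous tail coiling was scored at 25 hpf. Morphological features from automated image analysis (FishInspector), heart rate and locomotor response were fitted with drc models. Quantal endpoints were dichotomised at 2.5 SD from controls and fitted with a log-logistic model; heart rate, pigmentation and STC were normalised to the replicate control mean. Betamethasone was tested as betamethasone dipropionate, diflorasone as diflorasone diacetate.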

Danio rerio embryo [2] = experiment: EC10 Otolith-eye distance_Decrease; higher = less potent; conditions: exposure time: 4 dpf
Experimental: as §1

Danio rerio embryo [3] = experiment: EC20 Eye size_Decrease; higher = less potent
Experimental: as §1

Danio rerio embryo [4] = experiment: EC20 Head trunk angle_Decrease; higher = less potent; conditions: exposure time: 2 dpf
Experimental: as §1

Danio rerio embryo [5] = experiment: EC50 Body length_Decrease
Experimental: as §1

Danio rerio embryo [6] = experiment: EC10 Curvature_Increase; higher = less potent
Experimental: as §1

Danio rerio embryo [7] = experiment: EC50 Curvature_Increase
Experimental: as §1

Danio rerio embryo [8] = experiment: EC10 Pericard size_Increase; higher = less potent; conditions: exposure time: 4 dpf
Experimental: as §1

Danio rerio embryo [9] = experiment: EC20 Eye-jaw distance_Decrease; higher = less potent; conditions: exposure time: 4 dpf
Experimental: as §1

Danio rerio embryo [10] = system: Danio rerio embryo
Experimental: as §1

Danio rerio embryo [11] = experiment: EC50 Eye-jaw distance_Decrease; conditions: exposure time: 4 dpf
Experimental: as §1

Danio rerio embryo [12] = experiment: EC20 Curvature_Increase; higher = less potent
Experimental: as §1

Danio rerio embryo [13] = experiment: EC10 Bladder size_Decrease; higher = less potent; conditions: exposure time: 4 dpf
Experimental: as §1

Danio rerio embryo [14] = experiment: EC20 Otolith-eye distance_Decrease; higher = less potent; conditions: exposure time: 4 dpf
Experimental: as §1

Danio rerio embryo [15] = experiment: EC10 Yolk sac size_Increase; higher = less potent; conditions: exposure time: 4 dpf
Experimental: as §1

Danio rerio embryo [16] = conditions: exposure time: 4 dpf
Experimental: as §1

Danio rerio embryo [17] = experiment: EC50 Otolith-eye distance_Decrease; conditions: exposure time: 4 dpf
Experimental: as §1

Danio rerio embryo [18] = experiment: EC20 Pericard size_Increase; higher = less potent; conditions: exposure time: 4 dpf
Experimental: as §1

Danio rerio embryo [19] = experiment: EC10 Body length_Decrease; higher = less potent
Experimental: as §1

Danio rerio embryo [20] = experiment: EC20 Body length_Decrease; higher = less potent
Experimental: as §1

Danio rerio embryo [21] = experiment: EC20 LMR dark; higher = less potent; conditions: exposure time: 4 dpf
Experimental: as §1

Danio rerio embryo [22] = experiment: EC50 Pericard size_Increase; conditions: exposure time: 4 dpf
Experimental: as §1

Danio rerio embryo [23] = experiment: EC10 Eye-jaw distance_Decrease; higher = less potent; conditions: exposure time: 4 dpf
Experimental: as §1

Danio rerio embryo [24] = experiment: spontaneous tail coiling frequency (coils/min/embryo); higher = more spontaneous movement; conditions: 25 hpf
Experimental: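 Spontaneous tail coilings of zebrafish embryos exposed from 2 hpf were recorded at 24-25 hpf in 1-min videos and detected by a KNIME workflow from grey-value variance. Betamethasone was tested as the dipropionate, diflorasone as the diacetate.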

Danio rerio embryo [25] = experiment: EC20 Yolk sac size_Increase; higher = less potent; conditions: exposure time: 4 dpf
Experimental: as §1

Danio rerio embryo [26] = experiment: EC10 LMR dark; higher = less potent; conditions: exposure time: 4 dpf
Experimental: as §1

Danio rerio embryo [27] = experiment: EC20 Bladder size_Decrease; higher = less potent; conditions: exposure time: 4 dpf
Experimental: as §1

Danio rerio embryo [28] = experiment: EC10 Any effect; higher = less potent
Experimental: as §1

Danio rerio embryo [29] = experiment: EC50 Bladder size_Decrease; conditions: exposure time: 4 dpf
Experimental: as §1

Danio rerio embryo [30] = experiment: EC20 Any effect; higher = less potent
Experimental: as §1

CCO/N=C(\CC)C1=C(O)CC(c2c(C)cc(C)cc2C)CC1=O (stereo not drawn) [Tralkoxydim]
EC50 Yolk sac size Increase (Danio rerio embryo [1]): 65.3 µM
EC10 Otolith-eye distance Decrease (Danio rerio embryo [2]): 77.1 µM
EC20 Eye size Decrease (Danio rerio embryo [3]; exposure time: 2 dpf): 122 µM
EC20 Eye size Decrease (Danio rerio embryo [3]; exposure time: 4 dpf): 94.7 µM
EC20 Head trunk angle Decrease (Danio rerio embryo [4]): 88 µM
EC50 Body length Decrease (Danio rerio embryo [5]; exposure time: 2 dpf): 66.2 µM
EC50 Body length Decrease (Danio rerio embryo [5]; exposure time: 4 dpf): 103 µM
EC10 Curvature Increase (Danio rerio embryo [6]; exposure time: 2 dpf): 77.4 µM
EC10 Curvature Increase (Danio rerio embryo [6]; exposure time: 4 dpf): 85.2 µM
EC50 Curvature Increase (Danio rerio embryo [7]; exposure time: 2 dpf): 98.7 µM
EC50 Curvature Increase (Danio rerio embryo [7]; exposure time: 4 dpf): 101 µM
EC10 Pericard size Increase (Danio rerio embryo [8]): 103 µM
EC20 Eye-jaw distance Decrease (Danio rerio embryo [9]): 89 µM
EC50 Any effect (Danio rerio embryo [10]; exposure time: 2 dpf): 66 µM
EC50 Otolith (Danio rerio embryo [10]; exposure time: 2 dpf): 241 µM
EC50 Any effect (Danio rerio embryo [10]; exposure time: 4 dpf): 68.9 µM
EC50 STC decrease (Danio rerio embryo [10]; exposure time: 25 h): 171 µM
EC50 Eye-jaw distance Decrease (Danio rerio embryo [11]): 97.9 µM
EC20 Curvature Increase (Danio rerio embryo [12]; exposure time: 2 dpf): 84.7 µM
EC20 Curvature Increase (Danio rerio embryo [12]; exposure time: 4 dpf): 90.7 µM
EC10 Bladder size Decrease (Danio rerio embryo [13]): 47.1 µM
EC20 Otolith-eye distance Decrease (Danio rerio embryo [14]): 89.6 µM
EC10 Yolk sac size Increase (Danio rerio embryo [15]): 37.4 µM
EC50 LMR dark (Danio rerio embryo [16]): 85.8 µM
EC50 Otolith-eye distance Decrease (Danio rerio embryo [17]): 116 µM
EC20 Pericard size Increase (Danio rerio embryo [18]): 104 µM
EC10 Body length Decrease (Danio rerio embryo [19]; exposure time: 2 dpf): 36.6 µM
EC10 Body length Decrease (Danio rerio embryo [19]; exposure time: 4 dpf): 85.8 µM
EC20 Body length Decrease (Danio rerio embryo [20]; exposure time: 2 dpf): 45.5 µM
EC20 Body length Decrease (Danio rerio embryo [20]; exposure time: 4 dpf): 91.9 µM
EC20 LMR dark (Danio rerio embryo [21]): 1.56 µM
EC50 Pericard size Increase (Danio rerio embryo [22]): 106 µM
EC10 Eye-jaw distance Decrease (Danio rerio embryo [23]): 84.3 µM
spontaneous tail coiling frequency (Danio rerio embryo [24]; 30.4 µM): 2.43 ± 0.84
spontaneous tail coiling frequency (Danio rerio embryo [24]; 60.7 µM): 2.33
spontaneous tail coiling frequency (Danio rerio embryo [24]; 91.1 µM): 4.43 ± 1.7
spontaneous tail coiling frequency (Danio rerio embryo [24]; 121.4 µM): 3.17 ± 1.6
spontaneous tail coiling frequency (Danio rerio embryo [24]; 151.8 µM): 1.92 ± 2.8
spontaneous tail coiling frequency (Danio rerio embryo [24]; 197.3 µM): 0.957 ± 1.6
spontaneous tail coiling frequency (Danio rerio embryo [24]; 258 µM): 0
EC20 Yolk sac size Increase (Danio rerio embryo [25]): 45.9 µM
EC10 LMR dark (Danio rerio embryo [26]): 0.149 µM
EC20 Bladder size Decrease (Danio rerio embryo [27]): 51.9 µM
EC10 Any effect (Danio rerio embryo [28]; exposure time: 2 dpf): 38.8 µM
EC10 Any effect (Danio rerio embryo [28]; exposure time: 4 dpf): 45.1 µM
EC50 Bladder size Decrease (Danio rerio embryo [29]): 61.3 µM
EC20 Any effect (Danio rerio embryo [30]; exposure time: 2 dpf): 47.2 µM
EC20 Any effect (Danio rerio embryo [30]; exposure time: 4 dpf): 52.7 µM
